Measurements reported in patent US11078170B2 (Assembly Biosciences, Inc., priority 2017, dated 2021).

Test system: HBV viral production from HepAD38 cells
Experiment: Activity of test compounds on viral production from HepAD38 cells (viral load by qPCR of HBV core sequence in supernatant)
Type: cell-based
Details: Hepatitis B virus, 120 h, 5 days incubation, HBV DNA in supernatant by qPCR, top concentration 10 μM, read-out: Viral Load EC50 Activity range
Method in brief: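 HepAD38 cells, 50,000/well in tetracycline-free 2% FBS medium, treated 5 days at 37° C. with compound from 10 μM top concentration. HBV DNA in supernatant quantified by TaqMan qPCR of core sequence against DNA standards, relative to DMSO wells; CellTiter-Glo viability read in parallel. EC50/CC50 from four-parameter logistic fit.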

Compared with `CN1[C@@H](C(=O)Nc2ccc(F)c(Cl)c2)C[C@@H](C2CCCC2)NS1(=O)=O` [HBV-CSU-222-ISO-II, Cis-N-(3-chloro-4-fluorophenyl)-5-cyclopentyl-2-methyl-1,2,6-thiadiazinane-3-carboxamide 1,1-dioxide], `CN1[C@H](C(=O)Nc2ccc(F)c(Cl)c2)C[C@@H](c2ccc(Br)s2)NS1(=O)=O` (racemic) [HBV-CSU-114-Trans (Rac), Trans-5-(5-bromothiophen-2-yl)-N-(3-chloro-4-fluorophenyl)-2-methyl-1,2,6-thiadiazinane-3-carboxamide 1,1-dioxide] is higher in EC50: 1000 to 5000 nM for the first, > 5000 nM for the second.

Compared with `CN1[C@H](C(=O)Nc2ccc(F)c(Cl)c2)C[C@H](c2cc(-c3nncn3C)cs2)NS1(=O)=O` [HBV-CSU-328-ISO-I, Cis-N-(3-chloro-4-fluorophenyl)-2-methyl-5-(4-(4-methyl-4H-1,2,4-triazol-3-yl)thiophen-2-yl)-1,2,6-thiadiazinane-3-carboxamide 1,1-dioxide], `CN1[C@@H](C(=O)Nc2ccc(F)c(Cl)c2)C[C@@H](c2cc(-c3ccn(C)n3)cs2)NS1(=O)=O` [HBV-CSU-288-ISO-II, Cis-N-(3-Chloro-4-fluorophenyl)-2-methyl-5-(4-(1-methyl-1H-pyrazol-3-yl)thiophen-2-yl)-1,2,6-thiadiazinane-3-carboxamide 1,1-dioxide] is higher in EC50: < 1000 nM for the first, 1000 to 5000 nM for the second. The first is the more potent here.

Compared with `O=C(Nc1ccc(F)c(Cl)c1)C1CC(c2nccs2)NS(=O)(=O)N1CCO` (stereo not drawn) [HBV-CSU-097, Cis-N-(3-Chloro-4-fluorophenyl)-2-(2-hydroxyethyl)-5-(thiazol-2-yl)-1,2,6-thiadiazinane-3-carboxamide 1,1-dioxide], `O=C(Nc1ccc(F)c(Cl)c1)[C@@H]1C[C@H](c2nccs2)NS(=O)(=O)N1CCCO` [HBV-CSU-078-ISO-I, Cis-N-(3-Chloro-4-fluorophenyl)-2-(3-hydroxypropyl)-5-(thiazol-2-yl)-1,2,6-thiadiazinane-3-carboxamide 1,1-dioxide] is lower in EC50: > 5000 nM for the first, < 1000 nM for the second.

`CN1C(C(=O)Nc2ccc(F)c(Cl)c2)CC(c2cnc(-c3ccccc3)s2)NS1(=O)=O` (stereo not drawn) [HBV-CSU-235, N-(3-Chloro-4-fluorophenyl)-2-methyl-5-(2-phenylthiazol-5-yl)-1,2,6-thiadiazinane-3-carboxamide 1,1-dioxide] and `CN1[C@H](C(=O)Nc2ccc(F)c(Cl)c2)C[C@H](c2cc(-c3ccc(F)cn3)cs2)NS1(=O)=O` (stereo in doubt) [HBV-CSU-243-ISO-II, Cis-N-(3-chloro-4-fluorophenyl)-5-(4-(5-fluoropyridin-2-yl)thiophen-2-yl)-2-methyl-1,2,6-thiadiazinane-3-carboxamide 1,1-dioxide] cannot be ordered by EC50: < 1000 nM for the first, < 1000 nM for the second.

`CN1[C@H](C(=O)Nc2ccc(F)c(Cl)c2)C[C@H](c2ncc(-c3ccc(NS(C)(=O)=O)cc3)s2)NS1(=O)=O` [HBV-CSU-179-ISO-I, Cis-N-(3-Chloro-4-fluorophenyl)-2-methyl-5-(5-(4-(methylsulfonamido)phenyl)thiazol-2-yl)-1,2,6-thiadiazinane-3-carboxamide 1,1-dioxide] and `CN1[C@@H](C(=O)Nc2ccc(F)c(Cl)c2)C[C@@H](c2ncc(-c3ccc(NS(C)(=O)=O)cc3)s2)NS1(=O)=O` (relative stereo) [HBV-CSU-179, Cis-N-(3-Chloro-4-fluorophenyl)-2-methyl-5-(5-(4-(methylsulfonamido)phenyl)thiazol-2-yl)-1,2,6-thiadiazinane-3-carboxamide 1,1-dioxide] cannot be ordered by EC50: < 1000 nM for the first, < 1000 nM for the second.

Compared with `CN1C(C(=O)Nc2ccc(F)c(Cl)c2)CC(c2ccc(OC(F)F)cc2)NS1(=O)=O` (racemic) [HBV-CSU-263, Cis-N-(3-Chloro-4-fluorophenyl)-5-(4-(difluoromethoxy)phenyl)-2-methyl-1,2,6-thiadiazinane-3-carboxamide 1,1-dioxide], `CN1[C@@H](C(=O)Nc2ccc(F)c(Cl)c2)C[C@@H](c2cccc(Cl)c2)NS1(=O)=O` [HBV-CSU-261-ISO-II, Cis-N-(3-Chloro-4-fluorophenyl)-5-(3-chlorophenyl)-2-methyl-1,2,6-thiadiazinane-3-carboxamide 1,1-dioxide] is higher in EC50: < 1000 nM for the first, > 5000 nM for the second.

`C#CCCN1C(C(=O)Nc2ccc(F)c(Cl)c2)CC(c2nccs2)NS1(=O)=O` (stereo not drawn) [HBV-CSU-090, Cis-2-(But-3-yn-1-yl)-N-(3-chloro-4-fluorophenyl)-5-(thiazol-2-yl)-1,2,6-thiadiazinane-3-carboxamide 1,1-dioxide] and `C#CCN1[C@H](C(=O)Nc2ccc(F)c(Cl)c2)C[C@H](c2nccs2)NS1(=O)=O` (relative stereo) [HBV-CSU-089-ISO-I, Cis-N-(3-chloro-4-fluorophenyl)-2-(prop-2-yn-1-yl)-5-(thiazol-2-yl)-1,2,6-thiadiazinane-3-carboxamide 1,1-dioxide] cannot be ordered by EC50: < 1000 nM for the first, < 1000 nM for the second.

First: CN1[C@@H](C(=O)Nc2ccc(F)c(Cl)c2)C[C@@H](c2cc(-c3ccc(F)cc3)cs2)NS1(=O)=O [HBV-CSU-239-ISO-II]
Second: CN1[C@H](C(=O)Nc2ccc(F)c(Cl)c2)C[C@H](c2cc(-c3cn[nH]c3)cs2)NS1(=O)=O [HBV-CSU-245-ISO-I]
The EC50 of the first is higher: 1000 to 5000 nM for the first, < 1000 nM for the second.

First: CN1[C@@H](C(=O)Nc2ccc(F)c(Cl)c2)C[C@@H](c2ccc(-c3cnn(CCO)c3)s2)NS1(=O)=O [HBV-CSU-293-ISO-II, Cis-N-(3-chloro-4-fluorophenyl)-5-(5-(1-(2-hydroxyethyl)-1H-pyrazol-4-yl)thiophen-2-yl)-2-methyl-1,2,6-thiadiazinane-3-carboxamide 1,1-dioxide]
Second: CCn1cc(-c2ccc(C3CC(C(=O)Nc4ccc(F)c(Cl)c4)N(C)S(=O)(=O)N3)s2)cn1 (racemic) [HBV-CSU-291, Cis-N-(3-chloro-4-fluorophenyl)-5-(5-(1-ethyl-1H-pyrazol-4-yl)thiophen-2-yl)-2-methyl-1,2,6-thiadiazinane-3-carboxamide 1,1-dioxide]
The EC50 of the first is higher: > 5000 nM for the first, < 1000 nM for the second.

First: [2H]C1[C@]([2H])(C(=O)Nc2ccc(F)c(Cl)c2)N(C)S(=O)(=O)N[C@]1([2H])c1ccc(-c2cn(C([2H])([2H])[2H])cn2)s1 (stereo in doubt) [HBV-CSU-376-ISO-II, Cis-N-(3-Chloro-4-fluorophenyl)-2-methyl-5-(5-(1-(methyl-d3)-1H-imidazol-4-yl)thiophen-2-yl)-1,2,6-thiadiazinane-3,4,5-d3-3-carboxamide 1,1-dioxide]
Second: CN1[C@H](C(=O)Nc2ccc(F)c(Cl)c2)C[C@H](c2ccc(-c3c[nH]cn3)s2)NS1(=O)=O [HBV-CSU-331-ISO-I, Cis-5-(5-(1H-imidazol-4-yl)thiophen-2-yl)-N-(3-chloro-4-fluorophenyl)-2-methyl-1,2,6-thiadiazinane-3-carboxamide 1,1-dioxide]
The EC50 of the first is higher: 1000 to 5000 nM for the first, < 1000 nM for the second.

First: CN1[C@@H](C(=O)Nc2ccc(F)c(Cl)c2)C[C@@H](c2ncc(-c3ccc(Br)c(F)c3)s2)NS1(=O)=O [HBV-CSU-173-ISO-II, Cis-5-(5-(4-Bromo-3-fluorophenyl)thiazol-2-yl)-N-(3-chloro-4-fluorophenyl)-2-methyl-1,2,6-thiadiazinane-3-carboxamide 1,1-dioxide]
Second: CN1C(C(=O)Nc2ccc(F)c(Cl)c2)CC(c2ncc(Br)s2)NS1(=O)=O (racemic) [HBV-CSU-122, Cis-5-(5-bromothiazol-2-yl)-N-(3-chloro-4-fluorophenyl)-2-methyl-1,2,6-thiadiazinane-3-carboxamide 1,1-dioxide]
The EC50 of the first is higher: > 5000 nM for the first, < 1000 nM for the second. The second is the more potent here.

First: Cc1sc([C@@H]2C[C@H](C(=O)Nc3ccc(F)c(Cl)c3)N(C)S(=O)(=O)N2)cc1-c1cnn(C)c1 [HBV-CSU-304-ISO-II, Cis-N-(3-Chloro-4-fluorophenyl)-2-methyl-5-(5-methyl-4-(1-methyl-1H-pyrazol-4-yl)thiophen-2-yl)-1,2,6-thiadiazinane-3-carboxamide 1,1-dioxide]
Second: CCc1sc([C@H]2C[C@@H](C(=O)Nc3ccc(F)c(Cl)c3)N(C)S(=O)(=O)N2)cc1-c1cnn(C)c1 [HBV-CSU-305-ISO-I, Cis-N-(3-Chloro-4-fluorophenyl)-5-(5-ethyl-4-(1-methyl-1H-pyrazol-4-yl)thiophen-2-yl)-2-methyl-1,2,6-thiadiazinane-3-carboxamide 1,1-dioxide]
The EC50 of the first is higher: > 5000 nM for the first, < 1000 nM for the second.

`COCCN1[C@H](C(=O)Nc2ccc(F)c(Br)c2)C[C@H](c2nccs2)NS1(=O)=O` [HBV-CSU-059-ISO-II, Cis-N-(3-bromo-4-fluorophenyl)-2-(2-methoxyethyl)-5-(thiazol-2-yl)-1,2,6-thiadiazinane-3-carboxamide 1,1-dioxide] and `COCCCN1[C@H](C(=O)Nc2ccc(F)c(Cl)c2)C[C@H](c2nccs2)NS1(=O)=O` [HBV-CSU-077-ISO-II, Cis-N-(3-Chloro-4-fluorophenyl)-2-(3-methoxypropyl)-5-(thiazol-2-yl)-1,2,6-thiadiazinane-3-carboxamide 1,1-dioxide] cannot be ordered by EC50: < 1000 nM for the first, < 1000 nM for the second.

`CSCCN1C(C(=O)Nc2ccc(F)c(Cl)c2)CC(c2nccs2)NS1(=O)=O` (racemic) [HBV-CSU-109, Cis-N-(3-Chloro-4-fluorophenyl)-2-(2-(methylthio)ethyl)-5-(thiazol-2-yl)-1,2,6-thiadiazinane-3-carboxamide 1,1-dioxide] and `O=C(Nc1ccc(F)c(Cl)c1)C1CC(c2nccs2)NS(=O)(=O)N1CCOC(F)(F)F` (racemic) [HBV-CSU-072, Cis-N-(3-Chloro-4-fluorophenyl)-5-(thiazol-2-yl)-2-(2-(trifluoromethoxy)ethyl)-1,2,6-thiadiazinane-3-carboxamide 1,1-dioxide] cannot be ordered by EC50: < 1000 nM for the first, < 1000 nM for the second.

Compared with `CN1[C@H](C(=O)Nc2ccc(F)c(Cl)c2)C[C@H](c2cc(-c3cccs3)cs2)NS1(=O)=O` [HBV-CSU-170-ISO-I], `CN1[C@@H](C(=O)Nc2ccc(F)c(Cl)c2)C[C@@H](c2ccc(-c3cccs3)s2)NS1(=O)=O` [HBV-CSU-162-ISO-II, Cis-N-5-([2,2′-bithiophen]-5-yl)-N-(3-chloro-4-fluorophenyl)-2-methyl-1,2,6-thiadiazinane-3-carboxamide 1,1-dioxide] is higher in EC50: < 1000 nM for the first, 1000 to 5000 nM for the second. The first is the more potent here.
